From ChEMBL document CHEMBL3526082, “Identification of metabolites of ganoderic acid D by ultra-performance liquid chromatography/quadrupole time-of-flight mass spectrometry” (Drug Metab Dispos, 2012)
Each block holds one compound with its values, some of them ahead of it.

How the values were obtained:
[1] = Drug excretion in Sprague-Dawley rat bile assessed as (6R)-2-hydroxy-6-((5R,7S,10S,13R,14R,17R)-7-hydroxy-4-(hydroxymethyl)-4,10,13,14-tetramethyl-3,11,15-trioxo-2,3,4,5,6,7,10,11,12,13,14,15,16,17-tetradecahydro-1H-cyclopenta[a]phenanthren-17-yl)-2-methyl-4-oxoheptanoic acid level at 10 mg/kg, po after 12 hrs by UPLC/Q-TOF analysis; format: ADME, organism-based; set-up: dose 10 mg/kg, route oral; conditions: in vivo
[2] = Drug excretion in Sprague-Dawley rat urine assessed as parent compound at 10 mg/kg, po by UPLC/Q-TOF analysis; format: ADME, organism-based; set-up: dose 10 mg/kg, route oral; conditions: in vivo
[3] = Drug excretion in Sprague-Dawley rat bile assessed as (6R)-6-((5R,7S,10S,13R,14R,17R)-2,7-dihydroxy-4,4,10,13,14-pentamethyl-3,11,15-trioxo-2,3,4,5,6,7,10,11,12,13,14,15,16,17-tetradecahydro-1H-cyclopenta[a]phenanthren-17-yl)-2-methyl-4-oxoheptanoic acid level at 10 mg/kg, po after 12 hrs by UPLC/Q-TOF analysis; format: ADME, organism-based; set-up: dose 10 mg/kg, route oral; conditions: in vivo
[4] = Drug excretion in Sprague-Dawley rat bile assessed as (6R)-6-((5R,7S,10S,13R,14R,17R)-7-hydroxy-4,4,10,13,14-pentamethyl-3,11,15-trioxo-2,3,4,5,6,7,10,11,12,13,14,15,16,17-tetradecahydro-1H-cyclopenta[a]phenanthren-17-yl)-2-(hydroxymethyl)-4-oxoheptanoic acid level at 10 mg/kg, po after 12 hrs by UPLC/Q-TOF analysis; format: ADME, organism-based; set-up: dose 10 mg/kg, route oral; conditions: in vivo
[5] = Drug excretion in Sprague-Dawley rat bile assessed as (6R)-6-((5R,7S,10S,13R,14R,17R)-2,7-dihydroxy-4,4,10,13,14-pentamethyl-3,11,15-trioxo-2,3,4,5,6,7,10,11,12,13,14,15,16,17-tetradecahydro-1H-cyclopenta[a]phenanthren-17-yl)-2-(hydroxymethyl)-4-oxoheptanoic acid level at 10 mg/kg, po after 12 hrs by UPLC/Q-TOF analysis; format: ADME, organism-based; set-up: dose 10 mg/kg, route oral; conditions: in vivo
[6] = Drug excretion in Sprague-Dawley rat bile assessed as 3,7,11,15,23-pentaoxolanost-8-en-26-oic acid level at 10 mg/kg, po after 12 hrs by UPLC/Q-TOF analysis; format: ADME, organism-based; set-up: dose 10 mg/kg, route oral; conditions: in vivo
[7] = Drug excretion in Sprague-Dawley rat bile assessed as (6R)-6-((5R,7S,10S,13R,14R)-7-hydroxy-4-(hydroxymethyl)-4,10,13,14-tetramethyl-3,11,15-trioxo-2,3,4,5,6,7,10,11,12,13,14,15-dodecahydro-1H-cyclopenta[a]phenanthren-17-yl)-2-methyl-4-oxoheptanoic acid level at 10 mg/kg, po after 12 hrs by UPLC/Q-TOF analysis; format: ADME, organism-based; set-up: dose 10 mg/kg, route oral; conditions: in vivo
Plasma [8] = experiment: Drug level in Sprague-Dawley rat plasma at 10 mg/kg, po by UPLC/Q-TOF analysis; format: ADME, organism-based; set-up: dose 10 mg/kg, route oral; conditions: in vivo
[9] = Drug excretion in Sprague-Dawley rat bile assessed as 3,7(S)-dihydroxy-11,15,23-trioxolanost-8-en-26-oic acid level at 10 mg/kg, po after 12 hrs by UPLC/Q-TOF analysis; format: ADME, organism-based; set-up: dose 10 mg/kg, route oral; conditions: in vivo
[10] = Drug excretion in Sprague-Dawley rat bile assessed as (6R)-6-((5R,7S,10S,13R,14R)-3,7-dihydroxy-4,4,10,13,14-pentamethyl-11,15-dioxo-2,3,4,5,6,7,10,11,12,13,14,15-dodecahydro-1H-cyclopenta[a]phenanthren-17-yl)-2-methyl-4-oxoheptanoic acid level at 10 mg/kg, po after 12 hrs by UPLC/Q-TOF analysis; format: ADME, organism-based; set-up: dose 10 mg/kg, route oral; conditions: in vivo
HeLa = experiment: Antiproliferative activity against human HeLa cells assessed as inhibition of cell proliferation after 48 hrs; format: functional, cell-based
Plasma [11] = experiment: Drug level in Sprague-Dawley rat plasma treated with ganoderic acid D at 10 mg/kg, po by UPLC/Q-TOF analysis; format: ADME, organism-based; set-up: dose 10 mg/kg, route oral; conditions: in vivo
Liver microsome [12] = experiment: Drug metabolism in Sprague-Dawley rat liver microsomes assessed as 3,7(S)-dihydroxy-11,15,23-trioxolanost-8-en-26-oic acid formation at 100 uM after 1 hr by UPLC/Q-TOF analysis; format: ADME
[13] = Drug excretion in Sprague-Dawley rat bile assessed as 7(S) -hydroxy-11,15,23-trioxo-3-sulfooxylanost-8-en-26-oic acid level at 10 mg/kg, po after 12 hrs by UPLC/Q-TOF analysis; format: ADME, organism-based; set-up: dose 10 mg/kg, route oral; conditions: in vivo
[14] = Drug excretion in Sprague-Dawley rat bile assessed as (6R)-2-hydroxy-6-((5R,7S,10S,13R,14R,17R)-7-hydroxy-4,4,10,13,14-pentamethyl-3,11,15-trioxo-2,3,4,5,6,7,10,11,12,13,14,15,16,17-tetradecahydro-1H-cyclopenta[a]phenanthren-17-yl)-2-methyl-4-oxoheptanoic acid level at 10 mg/kg, po after 12 hrs by UPLC/Q-TOF analysis; format: ADME, organism-based; set-up: dose 10 mg/kg, route oral; conditions: in vivo
Liver microsome [15] = experiment: Drug metabolism in Sprague-Dawley rat liver microsomes assessed as (6R)-6-((5R,7S,10S,13R,14R,17R)-2,7-dihydroxy-4,4,10,13,14-pentamethyl-3,11,15-trioxo-2,3,4,5,6,7,10,11,12,13,14,15,16,17-tetradecahydro-1H-cyclopenta[a]phenanthren-17-yl)-2-methyl-4-oxoheptanoic acid formation at 100 uM after 1 hr by UPLC/Q-TOF analysis; format: ADME
[16] = Retention time of the compound in Sprague-Dawley rat bile by UPLC/Q-TOF analysis; format: ADME
Liver microsome [17] = experiment: Drug metabolism in Sprague-Dawley rat liver microsomes assessed as (6R)-6-((5R,7S,10S,13R,14R,17R)-2,7-dihydroxy-4-(hydroxymethyl)-4,10,13,14-tetramethyl-3,11,15-trioxo-2,3,4,5,6,7,10,11,12,13,14,15,16,17-tetradecahydro-1H-cyclopenta[a]phenanthren-17-yl)-2-methyl-4-oxoheptanoic acid formation at 100 uM after 1 hr by UPLC/Q-TOF analysis; format: ADME
[18] = Drug excretion in Sprague-Dawley rat bile assessed as (6R)-6-((5R,7S,10S,13R,14R,17R)-2,7-dihydroxy-4-(hydroxymethyl)-4,10,13,14-tetramethyl-3,11,15-trioxo-2,3,4,5,6,7,10,11,12,13,14,15,16,17-tetradecahydro-1H-cyclopenta[a]phenanthren-17-yl)-2-hydroxy-2-methyl-4-oxoheptanoic acid level at 10 mg/kg, po after 12 hrs by UPLC/Q-TOF analysis; format: ADME, organism-based; set-up: dose 10 mg/kg, route oral; conditions: in vivo
[19] = Drug excretion in Sprague-Dawley rat urine assessed as metabolite level at 10 mg/kg, po by UPLC/Q-TOF analysis; format: ADME, organism-based; set-up: dose 10 mg/kg, route oral; conditions: in vivo
[20] = Drug excretion in Sprague-Dawley rat bile assessed as (6R)-6-((5R,7S,10S,13R,14R,17R)-2,7-dihydroxy-4,4,10,13,14-pentamethyl-3,11,15-trioxo-2,3,4,5,6,7,10,11,12,13,14,15,16,17-tetradecahydro-1H-cyclopenta[a]phenanthren-17-yl)-2-hydroxy-2-methyl-4-oxoheptanoic acid level at 10 mg/kg, po after 12 hrs by UPLC/Q-TOF analysis; format: ADME, organism-based; set-up: dose 10 mg/kg, route oral; conditions: in vivo
Rattus norvegicus = experiment: Drug metabolism in Sprague-Dawley rat plasma assessed as 3,7(S)-dihydroxy-11,15,23-trioxolanost-8-en-26-oic acid level at 10 mg/kg, po by UPLC/Q-TOF analysis; format: ADME, organism-based; set-up: dose 10 mg/kg, route oral; conditions: in vivo
[21] = Drug excretion in Sprague-Dawley rat bile assessed as (6R)-6-((5R,7S,10S,13R,14R,17R)-2,7-dihydroxy-4-(hydroxymethyl)-4,10,13,14-tetramethyl-3,11,15-trioxo-2,3,4,5,6,7,10,11,12,13,14,15,16,17-tetradecahydro-1H-cyclopenta[a]phenanthren-17-yl)-2-methyl-4-oxoheptanoic acid level at 10 mg/kg, po after 12 hrs by UPLC/Q-TOF analysis; format: ADME, organism-based; set-up: dose 10 mg/kg, route oral; conditions: in vivo
Liver microsome [22] = experiment: Drug level in Sprague-Dawley rat liver microsomes assessed as compound formation treated with ganoderic acid D at 100 uM after 1 hr by UPLC/Q-TOF analysis; format: ADME
[23] = Drug excretion in Sprague-Dawley rat bile treated with ganoderic acid D at 10 mg/kg, po after 12 hrs by UPLC/Q-TOF analysis; format: ADME, organism-based; set-up: dose 10 mg/kg, route oral; conditions: in vivo

Compound: CC(CC(=O)CC(C)[C@H]1CC(=O)[C@@]2(C)C3=C(C(=O)C[C@]12C)[C@@]1(C)CCC(=O)C(C)(C)[C@@H]1C[C@@H]3O)C(=O)O (some centres not stated)
Drug excretion [1]: metabolite_detected
Drug excretion [2]: metabolite_not_detected
Drug excretion [3]: metabolite_detected
Drug excretion [4]: metabolite_detected
Drug excretion [5]: metabolite_detected
Drug excretion [6]: metabolite_detected
Drug excretion [7]: metabolite_detected
Drug uptake (Plasma [8]): Active
Drug excretion [9]: metabolite_detected
Drug excretion [10]: metabolite_detected
IC50 (HeLa): 17.3 µM
Drug metabolism (Plasma [11]): metabolite_detected
Drug metabolism (Liver microsome [12]): metabolite_detected
Drug excretion [13]: metabolite_detected
Drug excretion [14]: metabolite_detected
Drug metabolism (Liver microsome [15]): metabolite_detected
Retention_time [16]: 11.3 min
Drug metabolism (Liver microsome [17]): metabolite_detected
Drug excretion [18]: metabolite_detected
Drug excretion [19]: metabolite_not_detected
Drug excretion [20]: metabolite_detected
Drug metabolism (Rattus norvegicus): metabolite_detected
Drug excretion [21]: metabolite_detected

Compound: CC(CC(=O)CC(C)[C@H]1CC(=O)[C@@]2(C)C3=C(C(=O)C[C@]12C)[C@@]1(C)CCC(O)C(C)(C)[C@@H]1C[C@@H]3O)C(=O)O (some centres not stated)
Drug metabolism (Liver microsome [22]): metabolite_detected
Retention_time [16]: 9.9 min
Drug excretion [23]: metabolite_detected

Compound: CC(CC(=O)CC(C)[C@H]1CC(=O)[C@@]2(C)C3=C(C(=O)C[C@]12C)[C@@]1(C)CCC(=O)C(C)(C)[C@@H]1CC3=O)C(=O)O (some centres not stated)
Retention_time [16]: 11.5 min
Drug excretion [23]: metabolite_detected

Compound: CC(CC(=O)CC(C)C1=CC(=O)[C@@]2(C)C3=C(C(=O)C[C@]12C)[C@@]1(C)CCC(=O)C(C)(C)[C@@H]1C[C@@H]3O)C(=O)O (some centres not stated)
Retention_time [16]: 11.9 min
Drug excretion [23]: metabolite_detected

Compound: CC(CC(=O)CC(C)[C@H]1CC(=O)[C@@]2(C)C3=C(C(=O)C[C@]12C)[C@@]1(C)CC(O)C(=O)C(C)(C)[C@@H]1C[C@@H]3O)C(=O)O (some centres not stated)
Drug metabolism (Liver microsome [22]): metabolite_detected
Retention_time [16]: 9.5 min
Drug excretion [23]: metabolite_detected

Compound: CC(CC(=O)CC(C)[C@H]1CC(=O)[C@@]2(C)C3=C(C(=O)C[C@]12C)[C@@]1(C)CCC(=O)C(C)(CO)[C@@H]1C[C@@H]3O)C(=O)O (some centres not stated)
Retention_time [16]: 9.2 min
Drug excretion [23]: metabolite_detected

Compound: CC(CC(=O)CC(CO)C(=O)O)[C@H]1CC(=O)[C@@]2(C)C3=C(C(=O)C[C@]12C)[C@@]1(C)CC(O)C(=O)C(C)(C)[C@@H]1C[C@@H]3O (some centres not stated)
Retention_time [16]: 8 min
Drug excretion [23]: metabolite_detected

Compound: CC(CC(=O)CC(C)[C@H]1CC(=O)[C@@]2(C)C3=C(C(=O)C[C@]12C)[C@@]1(C)CC(O)C(=O)C(C)(CO)[C@@H]1C[C@@H]3O)C(=O)O (some centres not stated)
Drug metabolism (Liver microsome [22]): metabolite_detected
Retention_time [16]: 7.3 min
Drug excretion [23]: metabolite_detected

Compound: CC(CC(=O)CC(C)[C@H]1CC(=O)[C@@]2(C)C3=C(C(=O)C[C@]12C)[C@@]1(C)CCC(OS(=O)(=O)O)C(C)(C)[C@@H]1C[C@@H]3O)C(=O)O (some centres not stated)
Retention_time [16]: 8.5 min
Drug excretion [23]: metabolite_detected

Now from value to compound:

Retention_time [16]: 10 min
Drug excretion [23]: metabolite_detected
Compound: CC(CC(=O)CC(C)(O)C(=O)O)[C@H]1CC(=O)[C@@]2(C)C3=C(C(=O)C[C@]12C)[C@@]1(C)CCC(=O)C(C)(C)[C@@H]1C[C@@H]3O (some centres not stated)

Retention_time [16]: 9.8 min
Drug excretion [23]: metabolite_detected
Compound: CC(CC(=O)CC(CO)C(=O)O)[C@H]1CC(=O)[C@@]2(C)C3=C(C(=O)C[C@]12C)[C@@]1(C)CCC(=O)C(C)(C)[C@@H]1C[C@@H]3O (some centres not stated)

Retention_time [16]: 8.2 min
Drug excretion [23]: metabolite_detected
Compound: CC(CC(=O)CC(C)(O)C(=O)O)[C@H]1CC(=O)[C@@]2(C)C3=C(C(=O)C[C@]12C)[C@@]1(C)CC(O)C(=O)C(C)(C)[C@@H]1C[C@@H]3O (some centres not stated)

Retention_time [16]: 7.5 min
Drug excretion [23]: metabolite_detected
Compound: CC(CC(=O)CC(C)(O)C(=O)O)[C@H]1CC(=O)[C@@]2(C)C3=C(C(=O)C[C@]12C)[C@@]1(C)CCC(=O)C(C)(CO)[C@@H]1C[C@@H]3O (some centres not stated)

Retention_time [16]: 5.9 min
Drug excretion [23]: metabolite_detected
Compound: CC(CC(=O)CC(C)(O)C(=O)O)[C@H]1CC(=O)[C@@]2(C)C3=C(C(=O)C[C@]12C)[C@@]1(C)CC(O)C(=O)C(C)(CO)[C@@H]1C[C@@H]3O (some centres not stated)
